# Patent publication US9494592B2, “Reaction-based fluorescent probes for sulfane sulfur and the application in bioimaging” (Washington State University, priority 2013, dated 2016)
# Experiments:
# [1] = Selectivity: fluorescence response to sulfane sulfur compounds; details: sulfane sulfurs at 25 μM (H2S2, Cys-polysulfide, S8), probe 5.0 μM, 10 min, PBS pH 7.4, 1 mM CTAB
# Procedure: FIGS. 5A-B Fluorescence enhancement (F/F0) of 5.0 μM probes in the presence of various reactive sulfur species. (FIG. 5A) data of SSP1 (Ex/Em=380/458 nm). (FIG. 5B) data of SSP2 (Ex/Em=482/518 nm). The reactions were carried out for 10 min at rt in PBS buffer (50 mM, pH 7.4) with 1 mM CTAB. (1) probe alone; (2) 1 mM Cys; (3) 1 mM GSH; (4) 1 mM Hcy; (5) 100 μM GSSG; (6) 100 μM Na2S; (7) 100 μM Na2S2O3; (8) 100 μM Na2SO3; (9) 100 μM Na2SO4; (10) 25 μM Na2S2; (11) 25 μM Cys-polysulfide; (12) 25 μM S8.
# The stock solution of SSP1 (1 mM) and SSP2 (1 mM) were prepared in CH3CN, respectively. The solutions of various testing species were prepared from Cysteine (Cys), GSH, Homocysteine (Hcy), Glutathione disulfide (GSSG), Na2S.9H2O, Na2S2O3, Na2SO3, Na2SO4, Na2S2 in 50 mM PBS buffer. The stock solution of Cetrimonium bromide (CTAB, 100 mM) and S8 (10 mM) were prepared in EtOH, respectively. […]
# Unless otherwise noted, all the measurements were carried out for 10 min at 25° C. in 50 mM PBS buffer (pH 7.4) with 1 mM CTAB according to the following procedure. […] After mixing and then standing for 10 min at room temperature, a 4-mL portion of the reaction solution was transferred into a 1-cm quartz cell to measure fluorescence with λex=380 nm (for SSP1) or 482 nm (SSP2). In the meantime, a blank solution containing no testing species sample was prepared and measured under the same conditions for comparison. […]
# HeLa cells = experiment: Fluorescence imaging of H2S2 in HeLa cells; type: cell-based; details: SSP2 50 μM 20 min
# Procedure: (§1) FIGS. 6A-F Fluorescence images of H2S2 detection in H9c2 cells (a, b, c) and HeLa cells (d, e, f). Cells on glass coverslips were incubated with SSP2 (50 μM) for 20 min, then washed and subjected to different treatments. (a & d) controls (no Na2S2 was added); (b & e) treated with 50 μM Na2S2; (c & f) treated with 100 μM Na2S2.
# (§2) H9c2 cells and HeLa cells were grown on glass-bottom culture dishes (Corning Inc.) in DMEM supplemented with 10% (v/v) FBS, penicillin (100 U/mL) and streptomycin (100 μg/mL) at 37° C. under a humidified atmosphere containing 5% CO2. Before use, the adherent cells were washed one time with FBS-free DMEM. For intracellular H2S2 imaging, the cells were incubated with 50 μM SSP2 in FBS-free DMEM (containing 200 μM CTAB) at 37° C. for 20 min. After removal of excess probe and washed with PBS (pH 7.4), the cells were incubated with 50 or 100 uM Na2S2 for 30 min in PBS buffer (pH 7.4, containing 500 μM CTAB). Cell imaging was carried out after washing the cells three times with PBS (pH 7.4).
# [2] = Fluorescence response of probes to Na2S2 (H2S2 equivalent) in PBS buffer with CTAB; details: probe 5.0 μM, Na2S2 25 μM, 50 mM PBS pH 7.4, 1 mM CTAB, rt
# Procedure: The stock solution of SSP1 (1 mM) and SSP2 (1 mM) were prepared in CH3CN, respectively. The solutions of various testing species were prepared from Cysteine (Cys), GSH, Homocysteine (Hcy), Glutathione disulfide (GSSG), Na2S.9H2O, Na2S2O3, Na2SO3, Na2SO4, Na2S2 in 50 mM PBS buffer. The stock solution of Cetrimonium bromide (CTAB, 100 mM) and S8 (10 mM) were prepared in EtOH, respectively. The stock solution of Cys-polysulfide (10 mM) was prepared in CH3CN. All the test solution need to be freshly prepared.
# Unless otherwise noted, all the measurements were carried out for 10 min at 25° C. in 50 mM PBS buffer (pH 7.4) with 1 mM CTAB according to the following procedure. In a test tube, 3.5 mL of 50 mM PBS buffer (pH 7.4) and 40 μL of the stock solution of CTAB were mixed, and then added 20 μL of the stock solution of SSP1 or SSP2. The resulting solution was mixed well, followed by addition of a requisite volume of testing species sample solution. The final volume of the reaction solution was adjusted to 4 mL with 50 mM PBS buffer (pH 7.4). After mixing and then standing for 10 min at room temperature, a 4-mL portion of the reaction solution was transferred into a 1-cm quartz cell to measure fluorescence with λex=380 nm (for SSP1) or 482 nm (SSP2). In the meantime, a blank solution containing no testing species sample was prepared and measured under the same conditions for comparison. […]
# H9c2 cells = experiment: Fluorescence imaging of H2S2 in H9c2 cells; type: cell-based; details: SSP2 50 μM 20 min
# Procedure: as §1, §2
# [3] = Fluorescence quantum yield determination; type: physicochemical; details: probe alone; aqueous PBS buffer solution (pH 7.4)
# Procedure: The quantum yield was calculated according to the equation:^3 (Φsample=Φstandard*(Isample/Istandard)*(Astandard/Asample)*(nsample/nstandard)^2) Φ denotes the quantum yield; I denotes the area under the fluorescence band; A denotes the absorbance at the excitation wavelength; n denotes the refractive index of the solvent.
# For quantum yield of SSP1, it was determined using 7-hydroxycoumarin as a standard by comparing the area under the corrected emission spectrum of the test sample with that of a solution of 7-hydroxycoumarin excited at 330 nm in sodium phosphate buffer (0.1 M; pH 7.4), which has a quantum efficiency of 0.76 according to the literature.
# For quantum yield of SSP2, Quantum yield was determined using fluorescein as a standard by comparing the area under the corrected emission spectrum of the test sample with that of a solution of fluorescein excited at 490 nm in 0.1 N NaOH, which has a quantum efficiency of 0.85 according to the literature.
# [4] = Effect of pH on probe fluorescence and stability; type: physicochemical; details: probe 5.0 μM, 50 mM PBS, 1 mM CTAB
# Procedure: FIGS. 2A-B Fluorescence intensity changes of (FIG. 2A) 5.0 μM SSP1 and (FIG. 2B) 5.0 μM SSP2 at different pH values in the absence (▪) or presence (●) of Na2S2 (25 μM). The reactions were carried out for 10 min at 25° C. in 50 mM PBS buffer with 1 mM CTAB. Data (A) were acquired at 458 nm and excited at 380 nm. Data (B) were acquired at 518 nm and excited at 482 nm.
# Unless otherwise noted, all the measurements were carried out for 10 min at 25° C. in 50 mM PBS buffer (pH 7.4) with 1 mM CTAB according to the following procedure. In a test tube, 3.5 mL of 50 mM PBS buffer (pH 7.4) and 40 μL of the stock solution of CTAB were mixed, and then added 20 μL of the stock solution of SSP1 or SSP2. The resulting solution was mixed well, followed by addition of a requisite volume of testing species sample solution. The final volume of the reaction solution was adjusted to 4 mL with 50 mM PBS buffer (pH 7.4). After mixing and then standing for 10 min at room temperature, a 4-mL portion of the reaction solution was transferred into a 1-cm quartz cell to measure fluorescence with λex=380 nm (for SSP1) or 482 nm (SSP2). In the meantime, a blank solution containing no testing species sample was prepared and measured under the same conditions for comparison. All the measurements were repeated three times and data reported were averages.
# [5] = excited at 330 nm in sodium phosphate buffer (0.1 M; pH 7.4); cited from earlier work
# [6] = then Na2S2 (50 or 100 μM) for 30 min
fluorescence quantum yield (Φ) [3],Compound,fluorescence response (enhancement F/F0) [1],cell fluorescence at 100 μM versus 50 μM Na2S2 (HeLa cells; Na2S2 30 min),cell fluorescence after Na2S2 treatment (HeLa cells; [6]),"cell fluorescence without Na2S2 (HeLa cells; washed, no Na2S2)",fluorescence intensity increase [2],cell fluorescence at 100 μM versus 50 μM Na2S2 (H9c2 cells; Na2S2 30 min),cell fluorescence after Na2S2 treatment (H9c2 cells; [6]),"cell fluorescence without Na2S2 (H9c2 cells; washed, no Na2S2)",hydrolytic stability at basic pH [4],quantum efficiency of standard [5]
0.05,COc1ccc2c(c1)Oc1cc(OC(=O)c3ccccc3S)ccc1C21OC(=O)c2ccccc21 (stereo not drawn) [SSP2],50˜60 folds,obviously stronger fluorescence,strong fluorescence,No significant fluorescent cells,50 folds,obviously stronger fluorescence,strong fluorescence,No significant fluorescent cells,remains stable up to pH 9,
0.06,O=C(Oc1ccc2ccc(=O)oc2c1)c1ccccc1S [SSP1],26˜33 folds,,,,25 folds,,,,"above pH 8, SSP1 undergoes small amount of hydrolysis",
,O=c1ccc2ccc(O)cc2o1 [7-hydroxycoumarin],,,,,,,,,,0.76
